A word on the inhibition: it is the change of the read-out against control, counted positive when it falls. As usually defined, the IC50 is the concentration that inhibits the measured activity by half.

The source made the active and inactive calls. No cut-off for these calls is given here.

Test [1] addresses T1, Protein smoothened (Homo sapiens, UniProt Q99835). Briefly: Antagonist activity at smoothened (unknown origin) expressed in mouse Shh Light2 cells co-expressing Gli-dependent reporter gene assessed as inhibition of Shh signaling at 2 uM by dual luciferase reporter gene assay. It is filed as functional, cell-based. The settings on record: Shh Light II. (In general: A reporter such as luciferase makes a cellular process visible.)

The target in test [2] is T1, Protein smoothened. In words: Antagonist activity at smoothened (unknown origin) expressed in mouse Shh Light2 cells co-expressing Gli-dependent reporter gene assessed as inhibition of Shh signaling at 0.5 uM by dual luciferase reporter gene assay. The test is classed as functional, cell-based. The settings on record: Shh Light II.
The next test concerns Daoy. Briefly: Antiproliferative activity against human DaOY cells assessed as growth inhibition at 10 uM after 48 hrs by MTT assay. The test is classed as functional, cell-based. (Tetrazolium assays rely on reduction of a dye to a coloured formazan, in cell work by metabolically active cells.)
Test [3] can be described thus: Inhibition of hedgehog signaling in mouse MSC cells assessed as down regulation of alkaline phosphatase at 20 to 80 uM. It is filed as cell-based.
The nature of test [4]: Inhibition of Hedgehog signaling in mouse NIH/3T3 cells assessed as down regulation of mPTCH1 mRNA expression at 10 uM. Conditions: NIH3T3. It is filed as cell-based.
Test [5] concerns the target T1, Protein smoothened. Briefly: Antagonist activity at smoothened (unknown origin) expressed in mouse Shh Light2 cells co-expressing Gli-dependent reporter gene assessed as inhibition of Hh signaling by dual luciferase reporter gene assay. The test is classed as functional, cell-based, Shh Light II.
The species entered for the next test is Danio rerio. In words: Antagonist activity at smoothened in zebrafish embryo assessed as reduction in Gli-dependent RFP expression compound treated at 20 to 80 uM at 2 hrs post fertilization measured 36 hrs post fertilization.
Test [6] concerns the target T1, Protein smoothened. In words: Displacement of BODIPY-cyclopamine from human SMO cyclopamine-binding site expressed in HEK293 cells at 10 to 100 nM after 4 hrs by Hoechst 33342 staining-based assay. It is filed as cell-based.
In a further test the test system is SW1353. Briefly: Antiproliferative activity against human SW1353 cells assessed as growth inhibition at 10 uM after 48 hrs by MTT assay. It is filed as functional, cell-based.
Another test concerns HCT-116. Briefly: Antiproliferative activity against human HCT116 cells assessed as growth inhibition at 10 uM after 48 hrs by MTT assay. The test is classed as functional, cell-based.
The next test concerns A549. Briefly: Antiproliferative activity against human A549 cells assessed as growth inhibition at 10 uM after 48 hrs by MTT assay. It is filed as functional, cell-based.
For test [7], the target named is T1, Protein smoothened. In words: Displacement of BODIPY-cyclopamine from human SMO cyclopamine-binding site expressed in HEK293 cells at 50 to 200 nM after 4 hrs by Hoechst 33342 staining-based assay. The test is classed as cell-based.

T1 sequence (Q99835 whole entry): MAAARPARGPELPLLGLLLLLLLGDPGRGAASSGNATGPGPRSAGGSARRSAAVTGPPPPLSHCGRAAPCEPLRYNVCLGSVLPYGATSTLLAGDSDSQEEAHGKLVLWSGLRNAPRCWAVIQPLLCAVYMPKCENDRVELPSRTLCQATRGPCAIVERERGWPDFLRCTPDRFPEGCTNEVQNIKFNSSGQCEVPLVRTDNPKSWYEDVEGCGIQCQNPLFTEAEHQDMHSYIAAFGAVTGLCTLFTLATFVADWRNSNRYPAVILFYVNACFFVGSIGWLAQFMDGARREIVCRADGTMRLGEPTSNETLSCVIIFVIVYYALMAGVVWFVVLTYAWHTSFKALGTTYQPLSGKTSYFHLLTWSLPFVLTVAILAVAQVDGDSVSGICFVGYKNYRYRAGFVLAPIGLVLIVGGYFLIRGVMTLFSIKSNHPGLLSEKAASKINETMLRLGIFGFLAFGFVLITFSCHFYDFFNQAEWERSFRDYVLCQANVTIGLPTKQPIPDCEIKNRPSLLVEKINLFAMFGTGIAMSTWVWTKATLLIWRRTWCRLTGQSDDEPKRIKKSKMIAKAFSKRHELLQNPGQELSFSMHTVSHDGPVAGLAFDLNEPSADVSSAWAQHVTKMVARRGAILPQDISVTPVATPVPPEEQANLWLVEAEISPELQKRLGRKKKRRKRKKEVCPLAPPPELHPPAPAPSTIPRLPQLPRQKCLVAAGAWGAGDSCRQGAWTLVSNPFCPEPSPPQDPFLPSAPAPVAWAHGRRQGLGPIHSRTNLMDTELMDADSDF

On to `CS(=O)(=O)c1ccc(C(=O)Nc2ccc(Cl)c(NC(=O)c3ccc(Cl)cn3)c2)c(Cl)c1`, for which, at Protein smoothened [1], the inhibition came to 30.5%.
Take `CS(=O)(=O)c1ccc(C(=O)Nc2ccc(Cl)c(NC(=O)Nc3ccc(Br)cc3F)c2)c(Cl)c1`: at Protein smoothened [2], the inhibition entry is “inactive”. In addition, the inhibition on Protein smoothened [1] amounted to 55.4%.
On to `CCc1ccccc1NC(=O)c1cc(NC(=O)c2ccc(S(C)(=O)=O)cc2Cl)ccc1Cl`, for which the inhibition at Protein smoothened [1] is 65.9%.
As to `CCOc1ccc(NC(=O)Nc2cc(NC(=O)c3ccc(S(C)(=O)=O)cc3Cl)ccc2Cl)cc1`, the inhibition result at Protein smoothened [2] is “inactive”. The inhibition at Protein smoothened [1] turned out to be 66.1%.
With `CS(=O)(=O)c1ccc(C(=O)Nc2ccc(Cl)c(C(=O)Nc3cccnc3)c2)c(Cl)c1`, the inhibition on Protein smoothened [1] was 72.9%.
On the same count and under the same terms, the same measure for `COc1cc(OC)cc(C(=O)Nc2cc(NC(=O)c3ccc(S(C)(=O)=O)cc3Cl)ccc2Cl)c1`: 3.6%.
On to `CS(=O)(=O)c1ccc(C(=O)Nc2ccc(Cl)c(C(=O)Nc3cccc(O)c3)c2)c(Cl)c1`, for which the “growth inhibition (GI)” value in the test with Daoy, with SW1353, in the test with HCT-116 and in the test on A549 was “Active” each time. Moreover, the inhibition result (in [3]; in test [4]; in the test listed under Danio rerio) was “Active” each time. Further, the IC50 on Protein smoothened [5] worked out at 0.04 µM. Further, the result at Protein smoothened [6] was Active. Besides, the inhibition at Protein smoothened [1] came out at 72.2%.
In the case of `CS(=O)(=O)c1ccc(C(=O)Nc2ccc(Cl)c(NC(=O)Nc3ccc(C(F)(F)F)cc3Cl)c2)c(Cl)c1`, on Protein smoothened [5], the half-maximal inhibitory concentration (IC50) turned out to be 0.3 µM.
Consider `CS(=O)(=O)c1ccc(C(=O)Nc2ccc(Cl)c(C(=O)Nc3cc(Cl)cc(Cl)c3)c2)c(Cl)c1`, for which the inhibition at Protein smoothened [1] amounted to 46.6%.
The same measure, in the same setting: the same measure for `CS(=O)(=O)c1ccc(C(=O)Nc2ccc(Cl)c(NC(=O)c3cccc(C(F)(F)F)c3)c2)c(Cl)c1`: 28.4%; for `CS(=O)(=O)c1ccc(C(=O)Nc2ccc(Cl)c(C(=O)Nc3ccc(Cl)cc3Cl)c2)c(Cl)c1`: 0%.
On to `COc1ccc(NC(=O)Nc2cc(NC(=O)c3ccc(S(C)(=O)=O)cc3Cl)ccc2Cl)cc1`, for which the inhibition result at Protein smoothened [2] was “inactive”. Further, the inhibition at Protein smoothened [1] worked out at 73.8%.
For `Cc1cccc(NC(=O)c2cc(NC(=O)c3ccc(S(C)(=O)=O)cc3Cl)ccc2Cl)c1C`, on Protein smoothened [5], the half-inhibitory concentration (IC50) was found to be 0.1 µM. At Protein smoothened [1], the inhibition was found to be 76.3%. At Protein smoothened [7], the result was Active.
Take `Cc1ccc(NC(=O)c2cc(NC(=O)c3ccc(S(C)(=O)=O)cc3Cl)ccc2Cl)cc1`: the inhibition on Protein smoothened [1] turned out to be 67.5%.
With `CS(=O)(=O)c1ccc(C(=O)Nc2ccc(Cl)c(NC(=O)c3ccccn3)c2)c(Cl)c1`, the inhibition on Protein smoothened [1] was determined as 53.2%.
As to `Cc1ccccc1NC(=O)c1cc(NC(=O)c2ccc(S(C)(=O)=O)cc2Cl)ccc1Cl`, on Protein smoothened [1], the inhibition was 73%.
Consider `CS(=O)(=O)c1ccc(C(=O)Nc2ccc(Cl)c(NC(=O)c3ccc(Cl)s3)c2)c(Cl)c1`, for which, at Protein smoothened [1], the inhibition came out at 51.4%.
`Cc1cc(C)cc(NC(=O)c2cc(NC(=O)c3ccc(S(C)(=O)=O)cc3Cl)ccc2Cl)c1`: the inhibition on Protein smoothened [1] turned out to be 56.8%.
As for `CCOc1ccc(NC(=O)c2cc(NC(=O)c3ccc(S(C)(=O)=O)cc3Cl)ccc2Cl)cc1`, the inhibition at Protein smoothened [1] turned out to be 70.4%.
Turning to `COc1ccc(NC(=O)c2cc(NC(=O)c3ccc(S(C)(=O)=O)cc3Cl)ccc2Cl)cc1`, the inhibition on Protein smoothened [1] was 69.8%.
Turning to `CS(=O)(=O)c1ccc(C(=O)Nc2ccc(Cl)c(-c3ccccn3)c2)c(Cl)c1`, the “growth inhibition (GI)” value in the test on Daoy, with SW1353, with HCT-116 and in the test with A549 was “Active” throughout. Further, the inhibition result (in test [3]; in test [4]; in the test filed under Danio rerio) was “Active” each time.
`CS(=O)(=O)c1ccc(C(=O)Nc2ccc(Cl)c(NC(=O)Nc3ccc(Cl)cc3)c2)c(Cl)c1`: the inhibition result on Protein smoothened [2] is “inactive”. Moreover, the inhibition on Protein smoothened [1] was 0%.

For the origin of these results see ChEMBL document CHEMBL3124810, “Synthesis and biological evaluation of novel benzamide derivatives as potent smoothened antagonists” (Bioorg Med Chem Lett, 2014).
